Experimental data published in ChEMBL document CHEMBL1201862, “PubChem BioAssay data set” (2004).
Active and inactive are the calls of the source.

Columns and labels:
[1] = growth suppression of beta-catenin-knockout colon cells, dose response, cell-based, HCT116, human colon tumor (AID 1045); assay type: functional;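 note: HCT116 colon tumor cells with beta catenin knocked out; cells exposed to compound for 60 hours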
Protein RecA = biological target: T1, Protein RecA (Mycobacterium tuberculosis, UniProt P9WHJ3); experiment: Fluorescence Cell-Free Homogeneous Dose Retest to Identify Inhibitors of RecA-Intein Splicing Activity. [Related pubchem assays (depositor defined):AID2097, AID2223, AID489010, AID492950]; assay type: functional
T1 sequence (P9WHJ3 whole entry): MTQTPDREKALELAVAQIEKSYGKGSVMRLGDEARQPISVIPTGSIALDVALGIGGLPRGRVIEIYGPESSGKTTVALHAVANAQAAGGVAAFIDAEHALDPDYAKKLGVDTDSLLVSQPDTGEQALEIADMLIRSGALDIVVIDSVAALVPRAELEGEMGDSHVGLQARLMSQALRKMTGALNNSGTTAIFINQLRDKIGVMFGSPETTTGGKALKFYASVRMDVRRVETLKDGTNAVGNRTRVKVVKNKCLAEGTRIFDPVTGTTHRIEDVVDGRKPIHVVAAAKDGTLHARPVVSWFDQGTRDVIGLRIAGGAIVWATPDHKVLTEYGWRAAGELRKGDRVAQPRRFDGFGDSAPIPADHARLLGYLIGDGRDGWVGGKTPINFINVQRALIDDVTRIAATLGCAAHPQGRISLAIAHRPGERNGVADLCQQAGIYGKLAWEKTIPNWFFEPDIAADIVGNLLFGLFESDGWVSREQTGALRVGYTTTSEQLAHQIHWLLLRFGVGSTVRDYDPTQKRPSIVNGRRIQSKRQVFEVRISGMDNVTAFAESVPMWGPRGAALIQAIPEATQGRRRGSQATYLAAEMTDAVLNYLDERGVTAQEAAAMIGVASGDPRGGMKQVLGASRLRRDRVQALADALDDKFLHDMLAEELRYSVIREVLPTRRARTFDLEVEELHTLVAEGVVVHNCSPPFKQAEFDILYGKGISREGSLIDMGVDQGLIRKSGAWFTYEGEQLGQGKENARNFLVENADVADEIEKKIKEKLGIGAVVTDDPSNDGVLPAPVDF

[2] = microbe, parasite or virus in culture; assay type: functional; details: Mycobacterium tuberculosis
[3] = biological target: T2, Replicative DNA helicase DnaB (Mycobacterium tuberculosis, UniProt P9WMR3); experiment: DnaB intein splicing inhibitors, dose response, biochemical, cell-free fluorescence (AID 449749); assay type: functional
T2 sequence (P9WMR3 whole entry): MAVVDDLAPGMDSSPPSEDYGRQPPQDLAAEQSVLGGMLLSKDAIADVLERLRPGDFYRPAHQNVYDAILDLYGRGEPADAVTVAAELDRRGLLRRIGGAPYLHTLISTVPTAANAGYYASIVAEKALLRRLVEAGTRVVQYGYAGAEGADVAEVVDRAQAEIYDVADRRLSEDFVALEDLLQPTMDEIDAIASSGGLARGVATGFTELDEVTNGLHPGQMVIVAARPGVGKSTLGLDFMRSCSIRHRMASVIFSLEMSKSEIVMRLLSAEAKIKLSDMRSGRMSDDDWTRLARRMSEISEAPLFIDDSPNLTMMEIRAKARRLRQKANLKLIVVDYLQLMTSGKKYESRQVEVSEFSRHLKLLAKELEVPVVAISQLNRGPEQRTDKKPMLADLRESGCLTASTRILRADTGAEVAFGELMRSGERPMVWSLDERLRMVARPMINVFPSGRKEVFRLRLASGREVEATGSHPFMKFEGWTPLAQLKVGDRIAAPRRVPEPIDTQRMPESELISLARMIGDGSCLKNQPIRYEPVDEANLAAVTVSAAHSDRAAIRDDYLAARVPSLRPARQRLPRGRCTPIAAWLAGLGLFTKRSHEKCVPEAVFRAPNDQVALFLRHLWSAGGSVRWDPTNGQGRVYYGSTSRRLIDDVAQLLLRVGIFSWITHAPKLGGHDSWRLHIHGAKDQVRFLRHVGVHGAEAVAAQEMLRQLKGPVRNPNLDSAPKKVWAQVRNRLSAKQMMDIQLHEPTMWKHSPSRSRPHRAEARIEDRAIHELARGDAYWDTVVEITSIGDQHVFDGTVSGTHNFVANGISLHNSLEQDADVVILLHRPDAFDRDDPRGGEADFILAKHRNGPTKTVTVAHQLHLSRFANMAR

[4] = growth suppression of PTEN-null colon cells, dose response, cell-based, HCT116 PTEN knockout (AID 1047); assay type: functional;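 note: HCT116 colon tumor cells with PTEN knocked out; cells exposed to compound for 60 hours before readout; potency for loss of cell viability measured by luminescence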
Hexokinase HKDC1 = biological target: T3, Hexokinase HKDC1 (Homo sapiens, UniProt Q2TB90); experiment: HKDC1 hexokinase inhibitors, dose response, biochemical, W721R variant (AID 504729); assay type: functional
T3 sequence (Q2TB90 whole entry): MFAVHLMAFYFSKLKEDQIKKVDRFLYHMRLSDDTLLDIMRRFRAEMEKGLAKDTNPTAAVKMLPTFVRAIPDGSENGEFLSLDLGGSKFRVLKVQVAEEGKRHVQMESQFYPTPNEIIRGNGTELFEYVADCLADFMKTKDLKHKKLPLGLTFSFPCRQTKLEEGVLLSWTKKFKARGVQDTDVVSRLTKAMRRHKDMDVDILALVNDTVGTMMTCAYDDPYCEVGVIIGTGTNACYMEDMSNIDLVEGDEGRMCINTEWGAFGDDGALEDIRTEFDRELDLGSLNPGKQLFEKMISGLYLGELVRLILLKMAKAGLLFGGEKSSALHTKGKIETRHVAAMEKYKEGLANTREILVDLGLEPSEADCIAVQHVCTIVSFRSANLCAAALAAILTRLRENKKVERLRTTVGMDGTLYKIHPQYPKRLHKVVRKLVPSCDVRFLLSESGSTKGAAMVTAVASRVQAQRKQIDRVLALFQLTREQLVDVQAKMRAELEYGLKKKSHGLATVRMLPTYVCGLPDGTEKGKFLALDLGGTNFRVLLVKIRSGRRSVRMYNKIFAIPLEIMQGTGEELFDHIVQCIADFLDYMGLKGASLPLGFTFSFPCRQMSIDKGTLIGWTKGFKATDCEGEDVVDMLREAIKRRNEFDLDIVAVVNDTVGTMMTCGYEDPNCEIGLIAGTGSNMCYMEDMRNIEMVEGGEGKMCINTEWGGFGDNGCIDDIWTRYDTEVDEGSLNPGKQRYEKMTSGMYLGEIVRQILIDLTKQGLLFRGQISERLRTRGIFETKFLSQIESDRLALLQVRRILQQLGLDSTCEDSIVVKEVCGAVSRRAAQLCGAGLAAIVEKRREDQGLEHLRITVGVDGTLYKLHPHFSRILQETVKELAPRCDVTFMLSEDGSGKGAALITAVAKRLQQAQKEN

HEK293 [5] = experiment: NOD2 signaling inhibitors in MDP-stimulated cells, cell-based, uHTS, luminescence (AID 2001); assay type: functional; details: Homo sapiens
HEK293 [6] = experiment: cells; assay type: functional, cell-based; details: Homo sapiens
[7] = control 3'UTR Renilla luciferase suppression, dose response, counter-screen for Shn3 inhibitor project, cell-based, Clone20-Shn3RL, cherry-picked (AID 624133); assay type: functional
[8] = Shn3 3'UTR reporter inhibitors, dose response, cell-based, Clone20 osteoblasts, firefly luciferase, cherry-picked (AID 624132); assay type: functional;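 note: firefly luciferase luminescence from reporter carrying the Shn3 3'UTR in osteoblasts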
HEK293 [9] = experiment: cells; assay type: functional, cell-based; details: Homo sapiens; remark: listed apart in the source
HEK293 [10] = experiment: NOD1 signaling inhibitors, primary screen, cell-based, luminescence, uHTS (AID 1578); assay type: functional; details: Homo sapiens
HEK293 [11] = experiment: cells; assay type: functional, cell-based; details: Homo sapiens; remark: listed apart in the source
[12] = biological target: Nucleotide-binding oligomerization domain-containing protein 2 (Homo sapiens, UniProt Q9HC29); experiment: NOD2 signaling inhibitors, cell-based, luminescence, uHTS, HEK293 (AID 1566); assay type: functional
[13] = P. falciparum Dd2 growth inhibitors, dose response, SYBR Green, cherry-picked samples (AID 1159567); assay type: functional, cell-based
[14] = P. falciparum 3D7-ScDHODH growth inhibitors, dose response, SYBR Green, dry powder samples (AID 1159570); assay type: functional, cell-based;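 note: parasite growth measured after 72 hours of compound exposure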
[15] = P. falciparum ATP4 D1247Y mutant growth inhibitors, dose response, NITD609-resistant line, SYBR Green, dry powder (AID 1159571); assay type: functional, cell-based;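 note: parasites synchronized at ring stage by sorbitol before testing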
[16] = P. falciparum Dd2 growth inhibitors, dose response, SYBR Green, dry powder samples (AID 1159566); assay type: functional, cell-based;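 note: potency for growth inhibition with lower SYBR green DNA signal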
[17] = cytotoxicity in OVCAR8 ovarian cancer cells, dose response, PAX8 project, cell-based, plate reader, dry powder samples (AID 743197); assay type: functional; details: OVCAR-8
[18] = inhibitors of clade B AD8 Env fusion, dose response, cell-based, cherry-pick (AID 652062); assay type: functional;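 note: luciferase signal from cell-cell fusion driven by HIV-1 clade B AD8 Env; potency is for inhibitors of fusion seen as a drop in luminescence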
Paired box protein Pax-8 = Paired box protein Pax-8 (Homo sapiens, UniProt Q06710); experiment: inhibitors of PAX8-driven TPO luciferase reporter, dose response, RMG-I cells, cherry-pick (AID 687027); assay type: functional, cell-based;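 note: luciferase reporter driven by Pax8 target thyroperoxidase promoter measured by SteadyGlo luminescence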
[19] = NIH:OVCAR-3 ovarian cancer cell cytotoxicity, dose response, PAX8 inhibitor project, plate reader, dry powder samples (AID 743044); assay type: functional, cell-based
[20] = inhibitors of HIV Env-driven cell fusion, dose response, cherry-pick (AID 652057); assay type: functional, cell-based
[21] = IGROV1 ovarian cancer cell cytotoxicity, dose response, PAX8 inhibitor project, plate reader, dry powder samples (AID 743043); assay type: functional, cell-based; details: IGROV-1

Chain of Paired box protein Pax-8 (Q06710 whole entry): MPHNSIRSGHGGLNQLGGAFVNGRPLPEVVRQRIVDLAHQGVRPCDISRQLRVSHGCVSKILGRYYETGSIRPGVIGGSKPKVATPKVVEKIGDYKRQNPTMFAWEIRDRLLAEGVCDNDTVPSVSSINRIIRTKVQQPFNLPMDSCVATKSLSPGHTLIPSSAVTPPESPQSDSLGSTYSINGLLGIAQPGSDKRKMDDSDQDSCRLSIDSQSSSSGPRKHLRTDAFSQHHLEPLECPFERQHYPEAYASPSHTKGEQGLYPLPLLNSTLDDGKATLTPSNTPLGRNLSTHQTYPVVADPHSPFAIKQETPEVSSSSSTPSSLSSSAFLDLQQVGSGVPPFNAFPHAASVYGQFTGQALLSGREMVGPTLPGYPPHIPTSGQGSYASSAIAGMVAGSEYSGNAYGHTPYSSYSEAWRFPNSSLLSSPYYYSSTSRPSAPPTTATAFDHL
Chain of Nucleotide-binding oligomerization domain-containing protein 2 (Q9HC29 whole entry, the tested form may be a part): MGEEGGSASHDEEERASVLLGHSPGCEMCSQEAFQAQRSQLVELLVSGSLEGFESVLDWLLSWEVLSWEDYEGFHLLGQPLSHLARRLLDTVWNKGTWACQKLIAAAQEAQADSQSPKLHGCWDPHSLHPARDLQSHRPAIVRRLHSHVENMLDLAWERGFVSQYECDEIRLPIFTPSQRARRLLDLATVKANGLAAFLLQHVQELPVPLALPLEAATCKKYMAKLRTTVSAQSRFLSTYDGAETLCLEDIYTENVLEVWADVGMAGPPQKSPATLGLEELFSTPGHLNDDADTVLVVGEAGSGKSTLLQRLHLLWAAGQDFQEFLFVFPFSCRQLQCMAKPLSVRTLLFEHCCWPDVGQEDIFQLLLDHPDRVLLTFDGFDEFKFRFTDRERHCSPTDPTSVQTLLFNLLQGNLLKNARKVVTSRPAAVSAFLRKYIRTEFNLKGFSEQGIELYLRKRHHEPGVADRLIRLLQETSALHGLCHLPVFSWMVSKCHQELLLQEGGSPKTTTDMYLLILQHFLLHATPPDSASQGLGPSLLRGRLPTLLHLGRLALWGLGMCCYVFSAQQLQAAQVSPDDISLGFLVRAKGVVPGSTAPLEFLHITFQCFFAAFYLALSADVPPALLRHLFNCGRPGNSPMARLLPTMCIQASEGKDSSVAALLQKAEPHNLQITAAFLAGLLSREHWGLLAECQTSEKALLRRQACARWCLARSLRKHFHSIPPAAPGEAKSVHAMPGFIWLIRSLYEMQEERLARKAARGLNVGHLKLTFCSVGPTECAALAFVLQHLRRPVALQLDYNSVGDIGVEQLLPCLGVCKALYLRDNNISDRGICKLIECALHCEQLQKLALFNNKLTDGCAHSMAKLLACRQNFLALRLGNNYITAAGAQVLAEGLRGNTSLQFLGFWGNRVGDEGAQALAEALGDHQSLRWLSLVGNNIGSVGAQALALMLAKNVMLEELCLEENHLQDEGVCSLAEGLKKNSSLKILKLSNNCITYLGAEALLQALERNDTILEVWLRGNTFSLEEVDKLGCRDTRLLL

## O=C1c2ccccc2-c2onc3ccc(Oc4ccccc4)c1c23
[1]
  EC50: 6.7 µM (active)
Protein RecA
  EC50: 0.452 µM (active)
[2]
  CC50: 9.25 µM (active)
[3]
  AC50: 1.38 µM (active)
[4]
  EC50: 6.21 µM (active)
Hexokinase HKDC1
  IC50: 70.7 µM (inactive)

## COc1cc(C2c3c([nH]c(=O)[nH]c3=O)Nc3ccc4ccccc4c32)cc(OC)c1OC (stereo not given)
Hexokinase HKDC1
  IC50: 15.2 µM (active)

## COc1cc(OC)c(OC)cc1/C=C1\CC(C)C/C(=C\c2cc(OC)c(OC)cc2OC)C1=O (stereo not given)
HEK293 [5]
  IC50: 6.92 µM (active)
HEK293 [6]
  IC50: > 20 µM (inactive)
[7]
  AC50: 5.08 µM (active)
[8]
  AC50: 3.22 µM (active)
HEK293 [9]
  IC50: 15.7 µM (active)
HEK293 [10]
  EC50: 6.38 µM (active)
HEK293 [11]
  IC50: 5.7 µM (active)
[12]
  EC50: 7.31 µM (active)

## COc1ccc(S(=O)(=O)Nc2cccc3c2O[C@H](CN(C)Cc2ccc(-c4ccccc4)cc2)[C@@H](C)CN([C@H](C)CO)C3=O)cc1
[13]
  AC50: 0.955 µM (active)
[14]
  AC50: 1.02 µM (active)
[15]
  AC50: 0.696 µM (active)
[16]
  AC50: 0.587 µM (active)

## Cc1noc(C)c1S(=O)(=O)Nc1ccc2c(c1)CC(=O)N([C@@H](C)CO)C[C@@H](C)[C@H](CN(C)Cc1ccc(Cl)c(Cl)c1)O2
[17]
  AC50: 21.1 µM (active)
[18]
  AC50: 1.42 µM (active)
Paired box protein Pax-8
  AC50: 1.19 µM (active)
[19]
  AC50: 41.1 µM (active)
[20]
  AC50: 10.9 µM (active)
[21]
  AC50: 12.6 µM (active)

## C[C@H](CO)N1C[C@H](C)[C@@H](CN(C)Cc2ccc(-c3ccccc3)cc2)Oc2ccc(NS(=O)(=O)c3ccc(F)cc3)cc2CC1=O
[17]
  AC50: 55.8 µM (active)
Paired box protein Pax-8
  AC50: 8.82 µM (active)
[19]
  AC50: 29.7 µM (active)
[21]
  AC50: 27.8 µM (active)

## OC[C@H]1[C@H](c2ccccc2)C2(CN(Cc3ccccc3F)C2)N1Cc1ccccc1F
[14]
  AC50: 1.1 µM (active)
[15]
  AC50: 1.15 µM (active)
[16]
  AC50: 0.542 µM (active)

## C[C@H](CO)N1C[C@H](C)[C@@H](CN(C)S(=O)(=O)c2ccc(C(F)(F)F)cc2)OCc2ccccc2-c2c(n(C)c3ccccc23)C1=O
[13]
  AC50: 0.95 µM (active)
[14]
  AC50: 0.777 µM (active)
[15]
  AC50: 0.885 µM (active)
[16]
  AC50: 0.599 µM (active)

## CCCC(=O)N1CC2(C1)CN(S(=O)(=O)c1ccc(C)cc1)[C@@H](CO)c1[nH]c3cc(OC)ccc3c12
[13]
  AC50: 2.14 µM (active)
[14]
  AC50: 3.18 µM (active)
[15]
  AC50: 1.67 µM (active)
[16]
  AC50: 1.65 µM (active)
